“Also recorded” adds a separate entry of the source. Where a name gives a salt, the structure may show the parent alone.
Tests used:
[1] = target: T1, human arginase II (hArgII) (Homo sapiens, UniProt P78540); assay: QuantiChrom colorimetric arginase inhibition assay, human arginase II; format: biochemical; settings: IC50 from 12-concentration curve converted to Ki by Cheng-Prusoff equation
T1 sequence (P78540 23-354): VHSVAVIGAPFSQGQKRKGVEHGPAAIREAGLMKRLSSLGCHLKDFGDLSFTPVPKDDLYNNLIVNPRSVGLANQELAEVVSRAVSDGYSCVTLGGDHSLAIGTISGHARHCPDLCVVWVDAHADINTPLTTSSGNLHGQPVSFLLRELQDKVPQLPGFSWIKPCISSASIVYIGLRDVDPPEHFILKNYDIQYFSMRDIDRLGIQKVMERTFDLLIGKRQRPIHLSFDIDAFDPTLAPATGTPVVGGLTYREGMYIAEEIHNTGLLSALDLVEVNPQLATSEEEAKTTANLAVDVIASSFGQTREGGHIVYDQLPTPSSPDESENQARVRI
Protocol: (§1) Quantitative determination of arginase activity was performed by a colorimetric method using the QuantiChrom™ Arginase Assay Kit available from BioAssay Systems (Hayward, Calif., Catalog No. DARG-200), which was used according to the manufacture's protocol. Briefly, the method utilizes a chromogen that forms a colored complex specifically with urea produced in the arginase reaction. […] The intensity of the color is directly proportional to the arginase activity in the sample.
(§2) The rate of urea production was measured in the presence of twelve different concentrations of each potential inhibitor compound. The half maximal inhibitory concentration (IC50) was determined by constructing a dose-response curve. As IC50 values are dependent upon the measurement conditions, the IC50 values are converted to the inhibitor binding affinity (Ki) using the Cheng-Prusoff equation and the measured affinity constant (Km) of L-arginine.

[2] = target: T2, human arginase I (hArgI) (Homo sapiens, UniProt P05089); assay: QuantiChrom colorimetric arginase inhibition assay, human arginase I; format: biochemical; settings: IC50 from 12-concentration curve converted to Ki by Cheng-Prusoff equation
T2 sequence (P05089 1-322): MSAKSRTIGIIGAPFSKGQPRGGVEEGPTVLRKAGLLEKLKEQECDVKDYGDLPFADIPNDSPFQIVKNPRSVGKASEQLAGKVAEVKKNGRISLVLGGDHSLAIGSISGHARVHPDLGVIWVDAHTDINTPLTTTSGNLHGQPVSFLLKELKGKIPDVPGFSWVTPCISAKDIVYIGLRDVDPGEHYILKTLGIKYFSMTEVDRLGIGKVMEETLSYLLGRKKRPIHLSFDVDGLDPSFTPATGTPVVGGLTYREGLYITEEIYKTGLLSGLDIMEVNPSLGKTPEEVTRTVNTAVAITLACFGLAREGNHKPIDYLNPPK
Protocol: as §1, §2

[3] = tested on: arginase; assay: Arginase inhibition, potency comparisons (isoform not stated); format: biochemical, human; settings: relative potency statements in text
Protocol: Quantitative determination of arginase activity was performed by a colorimetric method using the QuantiChrom™ Arginase Assay Kit available from BioAssay Systems (Hayward, Calif., Catalog No. DARG-200), which was used according to the manufacture's protocol. Briefly, the method utilizes a chromogen that forms a colored complex specifically with urea produced in the arginase reaction. See, Mellerup, “Colorimetric method for rapid determination of serum arginase,” Clin. Chem. 13, 900-08 (1967). The intensity of the color is directly proportional to the arginase activity in the sample.
The rate of urea production was measured in the presence of twelve different concentrations of each potential inhibitor compound. The half maximal inhibitory concentration (IC50) was determined by constructing a dose-response curve. As IC50 values are dependent upon the measurement conditions, the IC50 values are converted to the inhibitor binding affinity (Ki) using the Cheng-Prusoff equation and the measured affinity constant (Km) of L-arginine. See, e.g., Cheng et al., “Relationship between the inhibition constant (K1) and the concentration of inhibitor which causes 50 percent inhibition (I50) of an enzymatic reaction,” Biochem. Pharmacol. 22, 3099-108 (1973).
In Table 6, the Ki values reflect the potency of these molecules to inhibit the catalytic activity of arginase to produce urea from the substrate L-arginine. […] That is, racemic materials were compared to racemic controls. Thus, there are several examples that have similar potencies to Rac-ABH.
Shortening the alkyl chain by one carbon atom as in the phenoxyethyl compound 1ad also results in a potency loss. Thus, there appears to be definitive structure-activity features that results in increased potency at the molecular target, arginase, in these α,α-disubstituted derivatives.

[4] = tested on: corpus cavernosum of the diabetic person; settings: ex vivo; cited from earlier work
[5] = tested on: erectile response; settings: live male rabbits; cited from earlier work
[6] = tested on: genitalia engorgement response; settings: live female rabbits; cited from earlier work
[7] = tested on: airway hyperresponsiveness; settings: guinea pigs, allergic asthma model, nebulizer treatment; cited from earlier work
[8] = tested on: experimental autoimmune encephalomyelitis; settings: cited from earlier work
[9] = tested on: opossum internal anal sphincter muscle; settings: cited from earlier work
[10] = tested on: rabbit and human penile corpus cavernosum; settings: cited from earlier work
[11] = cited from earlier work
[12] = tested on: microvasculature; settings: subcutaneous administration in humans; cited from earlier work

Compound	Ki [1]	Ki [2]	further results
N[C@](CO)(CCCCB(O)O)C(=O)O (single isomer, unassigned) [Compound 1as]	100 to 500 nM	100 to 500 nM	
NC(CCCCB(O)O)(Cc1ccccc1)C(=O)O (stereo not shown) [Compound 1a, 2-Amino-2-benzyl-6-boronohexanoic acid hydrochloride]	100 to 500 nM	100 to 500 nM	
Cl.NC(CCCO)(CCCCB(O)O)C(=O)O (stereo not shown) [Compound 1ak, 2-Amino-6-borono-2-(3-hydroxypropyl)hexanoic acid hydrochloride]			potency as arginase inhibitor, compared in words [3]: less potent
Cl.NC(CCCCB(O)O)(CCCOc1ccccc1)C(=O)O (stereo not shown) [Compound 1d]			potency as arginase inhibitor, compared in words [3]: as potent as Rac-ABH
NC(CCCCB(O)O)(CCCCc1ccccc1)C(=O)O (stereo not shown) [Compound 1e, 2-Amino-6-borono-2-(4-phenylbutyl)hexanoic acid]	10 to 100 nM	10 to 100 nM	
NC(CCCCB(O)O)(CCCOc1ccc(F)cc1)C(=O)O (stereo not shown) [Compound 1h, 2-Amino-6-borono-2-(3-(4-fluorophenoxy)propyl)hexanoic acid]	10 to 100 nM	0.1 to 10 nM	
N#Cc1ccc(C(=O)NCCOCCC(N)(CCCCB(O)O)C(=O)O)cc1 (stereo not shown) [Compound 38a, 2-Amino-6-borono-2-(2-(2-(4-cyanobenzamid)ethoxy)ethyl)hexanoic acid trifluoroacetate]	10 to 100 nM	10 to 100 nM	
CC(=O)NCCOCCC(N)(CCCCB(O)O)C(=O)O (stereo not shown) [Compound 38b, 2-(2-(2-Acetamidoethoxy)ethyl)-2-amino-6-boronohexanoic acid]	100 to 500 nM	100 to 500 nM	
COc1cccc(NC(=O)NCCOCCC(N)(CCCCB(O)O)C(=O)O)c1 (stereo not shown) [Compound 39a, 2-Amino-6-borono-2-(2-(2-(3-(3-methoxyphenyl)ureido)ethoxy)ethyl)hexanoic acid]	10 to 100 nM	10 to 100 nM	
COc1cccc(NC(=O)N2CCN(CCCC(N)(CCCCB(O)O)C(=O)O)CC2)c1 (stereo not shown) [Compound 39c, 2-Amino-6-borono-2-(3-(4-(3-methoxyphenylcarbamoyl)piperazin-1-yl)propyl)hexanoic acid]	10 to 100 nM	10 to 100 nM	
Cc1ccc(S(=O)(=O)NCCCCC(N)(CCCCB(O)O)C(=O)O)cc1 (stereo not shown) [Compound 40a, 2-Amino-6-borono-2-(4-(4-methylphenylsulfonamido)butyl)hexanoic acid]	10 to 100 nM	10 to 100 nM	
CC(N)(CCNC(N)=NO)C(=O)O (stereo not shown) [Compound 54a, 2-Amino-4-(2-hydroxyguanidino)-2-methylbutanoic acid dihydrochloride]	100 to 500 nM	100 to 500 nM	
N=C(NO)NCC[C@H](N)C(=O)O [Nor-NOHA, N^ω-hydroxy-nor-1-arginine, reference compound]	100 to 500 nM		
O=C1CCc2ccccc2O1 [dihydrocoumarin]			half-life ([11]; 37° C. in the stomach): about 1 hour
CC[C@H](C)C(=O)O[C@H]1C[C@@H](C)C=C2C=C[C@H](C)[C@H](CC[C@@H]3C[C@@H](O)CC(=O)O3)[C@H]21 [lovastatin, reference compound]			half-life of lactone hydrolysis ([11]; gastric pH and temperature): about 1 hour
S-(2-boronoethyl)-1-cysteine [BEC]			vasodilation and circulation [12]: vasodilatory and enhances circulation

Continued, in another order:

Ki [1]	Ki [2]	Compound	further results
10 to 100 nM	0.1 to 10 nM	NC(CCCCB(O)O)C(=O)O (racemic) [Rac-ABH, reference compound]	
0.1 to 10 nM	0.1 to 10 nM	N[C@@](CO)(CCCCB(O)O)C(=O)O (single isomer, unassigned) [Compound 1ar]	potency as arginase inhibitor, compared in words [3]: most potency as an arginase inhibitor by two orders of magnitude compared to compound 1as; also recorded: as potent as ABH; also recorded: almost two orders of magnitude) more potent than the other enantiomer
0.1 to 10 nM	0.1 to 10 nM	N[C@@H](CCCCB(O)O)C(=O)O [ABH, 2(S)-amino-6-borono-hexanoic acid]	NO biosynthesis [4]: restores NO biosynthesis; erectile response [5]: enhances the erectile response in live male rabbits; engorgement response in the genitalia [6]: enhances the engorgement response in the genitalia of live female rabbits; airway hyperresponsiveness [7]: prevents airway hyperresponsiveness; disease score [8]: improves the disease score of animals; relaxation of internal anal sphincter muscle [9]: relax this muscle; NO-dependent relaxation of corpus cavernosum [10]: enhances the NO-dependent relaxation of this tissue
10 to 100 nM	10 to 100 nM	Cl.NC(CCCCB(O)O)(CCOCc1ccccc1)C(=O)O (stereo not shown) [Compound 1aa, 2-Amino-2-(benzyloxyethyl)-6-boronohexanoic acid hydrochloride]	potency as arginase inhibitor, compared in words [3]: potency is lost
10 to 100 nM	10 to 100 nM	NC(CCCCB(O)O)(CCOc1cccc(Cl)c1)C(=O)O (stereo not shown) [Compound 1ad, 2-Amino-6-borono-2-(2-(3-chlorophenoxy)ethyl)hexanoic acid]	potency as arginase inhibitor, compared in words [3]: potency loss
10 to 100 nM	0.1 to 10 nM	CC(N)(CCCCB(O)O)C(=O)O (stereo not shown) [Compound 1ao, 2-Amino-6-borono-2-methylhexanoic acid hydrochloride]	
10 to 100 nM	10 to 100 nM	CC(C)CC(N)(CCCCB(O)O)C(=O)O (stereo not shown) [Compound 1ap, 2-Amino-6-borono-2-isobutylhexanoic acid hydrochloride]	
10 to 100 nM	0.1 to 10 nM	NC(CO)(CCCCB(O)O)C(=O)O (stereo not shown) [Compound 1aq, 2-Amino-6-borono-2-(hydroxymethyl)hexanoic acid hydrochloride]	
10 to 100 nM	10 to 100 nM	CCC(=O)CC(N)(CCCCB(O)O)C(=O)O (stereo not shown) [Compound 1aw, 2-Amino-6-borono-2-(2-oxobutyl)hexanoic acid hydrochloride]	
10 to 100 nM	10 to 100 nM	NC(CCCCB(O)O)(CC(=O)c1ccccc1)C(=O)O (stereo not shown) [Compound 1ax, 2-Amino-6-borono-2-(2-oxo-2-phenylethyl)hexanoic acid hydrochloride]	
0.1 to 10 nM	0.1 to 10 nM	NC(CCCCB(O)O)(CCCC1CCNCC1)C(=O)O (stereo not shown) [Compound 1az, 2-Amino-6-borono-2-(3-(piperidin-4-yl)propyl)hexanoic acid]	
10 to 100 nM	10 to 100 nM	NC(CCCCB(O)O)(CCCN1CCNCC1)C(=O)O (stereo not shown) [Compound 1ba]	
0.1 to 10 nM	0.1 to 10 nM	NCCCCC(N)(CCCCB(O)O)C(=O)O (stereo not shown) [Compound 1bb, 2,6-Diamino-2-(4-boronobutyl)hexanoic acid]	
0.1 to 10 nM	0.1 to 10 nM	Cl.NC(CCCCB(O)O)(CCCOc1ccccc1)C(=O)O (stereo not shown) [Compound 1d, 2-Amino-6-(borono-2-(3-phenoxypropyl)hexanoic acid hydrochloride]	

— patent US10118936B2, “Arginase inhibitors and methods of use” (ASTRAZENECA AB, priority 2009, dated 2018)
